Test results published in PMC6257782, “Design, Synthesis, and Biological Evaluation of Benzylamino-Methanone Based Cholesteryl Ester Transfer Protein Inhibitors” (Molecules, 2010).

Each compound was assayed against T1, CETP (from rabbit serum) (Oryctolagus cuniculus, UniProt P22687) (assay: fluorescent neutral lipid (CE) transfer assay, BioVision kit). Details: read-out: In vitro % inhibition of CETP at 10 μM.
T1 construct: native CETP in whole rabbit serum, not purified; BioVision fluorescent CE transfer kit (introduction describes human CETP, 476 residues, PDB 2OBD, not the assayed protein)
T1 sequence (P22687 2-497): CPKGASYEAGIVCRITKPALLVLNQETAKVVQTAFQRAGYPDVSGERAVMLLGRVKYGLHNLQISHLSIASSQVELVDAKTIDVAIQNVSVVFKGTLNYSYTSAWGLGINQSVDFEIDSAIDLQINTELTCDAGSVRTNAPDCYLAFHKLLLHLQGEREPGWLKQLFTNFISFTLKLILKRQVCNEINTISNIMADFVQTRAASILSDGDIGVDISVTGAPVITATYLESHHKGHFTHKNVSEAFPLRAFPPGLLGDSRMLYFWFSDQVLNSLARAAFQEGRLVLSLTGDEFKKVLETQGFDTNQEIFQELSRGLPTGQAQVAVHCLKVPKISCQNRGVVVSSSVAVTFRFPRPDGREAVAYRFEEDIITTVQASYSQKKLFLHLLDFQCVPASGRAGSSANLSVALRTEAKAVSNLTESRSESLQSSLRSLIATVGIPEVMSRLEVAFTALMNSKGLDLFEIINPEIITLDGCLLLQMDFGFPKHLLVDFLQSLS
Type: biochemical
Source text: fluorescent neutral lipid (CE) transfer assay, BioVision kit on CETP (from rabbit serum)

Question: With `COc1cccc(CNc2ccc(C(=O)c3ccc(C)cc3)cc2)c1` [compound 19, [4-(3-Methoxybenzylamino)phenyl]-p-tolyl-methanone] as the compound, how does the inhibition at 10 µM read?
Answer: Its inhibition at 10 µM is 16.4 ± 3%.

Question: With `Cc1ccc(C(=O)c2ccc(NCc3cccc(C(F)(F)F)c3)cc2)cc1` [compound 21, p-Tolyl-[4-(3-trifluoromethylbenzylamino)phenyl]-methanone] as the compound, how does the inhibition at 10 µM read?
Answer: Its inhibition at 10 µM is 16.7 ± 0.6%.

Question: Which inhibition at 10 µM does the source give for `Cc1ccc(C(=O)c2ccc(NCc3ccc(C(F)(F)F)cc3)cc2)cc1` [compound 22, p-Tolyl-[4-(4-trifluoromethylbenzylamino)phenyl]-methanone] here?
Answer: Its inhibition at 10 µM is 12.6 ± 2.6%.

Question: How did the inhibition at 10 µM turn out when `COc1ccc(C(=O)c2ccc(NCc3cccc(C(F)(F)F)c3)cc2)c(OC)c1` [compound 29, (2,4-Dimethoxyphenyl)-[4-(3-trifluoromethylbenzylamino)phenyl]-methanone] was run?
Answer: The inhibition at 10 µM was 19.5 ± 0.6%.

Question: For `COc1ccc(C(=O)c2ccc(NCc3ccc(C(F)(F)F)cc3)cc2)c(OC)c1` [compound 30, (2,4-Dimethoxyphenyl)-[4-(4-trifluoromethylbenzylamino)phenyl]-methanone], which inhibition at 10 µM is on record?
Answer: Its inhibition at 10 µM is 19.8 ± 2.9%.
